# Source: PubChem BioAssay (NCI)
#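 Values below derive from 48-hour exposures of cells grown in 96-well plates, with endpoints linearly interpolated between the two concentrations bracketing the appropriate inhibition level. GI50 marks 50% less growth. TGI is the concentration that stops growth completely.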
# Tests used:
# Experiment in all cases: NCI anticancer screen, dose series, 48 h
# SK-MEL-5 melanoma = tested on: SK-MEL-5 melanoma
# SN12C renal = tested on: SN12C renal
# COLO 205 colon = tested on: COLO 205 colon
# LOX IMVI melanoma = tested on: LOX IMVI melanoma
# HCT-15 colon = tested on: HCT-15 colon
# HT29 colon = tested on: HT29 colon
# CCRF-CEM leukemia = tested on: CCRF-CEM leukemia
# U251 CNS = tested on: U251 CNS
# HCC-2998 colon = tested on: HCC-2998 colon
# TK-10 renal = tested on: TK-10 renal
SMILES,TGI (SK-MEL-5 melanoma) [µM],TGI (SN12C renal) [µM],TGI (COLO 205 colon) [µM],TGI (LOX IMVI melanoma) [µM],TGI (HCT-15 colon) [µM],TGI (HT29 colon) [µM],TGI (CCRF-CEM leukemia) [µM],TGI (U251 CNS) [µM],TGI (HCC-2998 colon) [µM],TGI (TK-10 renal) [µM],GI50 (SK-MEL-5 melanoma) [µM],GI50 (SN12C renal) [µM],GI50 (COLO 205 colon) [µM],GI50 (TK-10 renal) [µM],GI50 (HCT-15 colon) [µM],GI50 (HT29 colon) [µM],GI50 (HCC-2998 colon) [µM]
O=S1(=O)NNC(=NCc2ccc(Cl)cc2)c2ccccc21,> 100,> 100,> 100,> 100,> 100,> 100,> 100,> 100,> 100,,,,,,,,
COC(=O)C(/C(=N/NC(=O)c1ccncc1)C(=O)Nc1ccccc1OC)c1nc2ccc(Cl)cc2[nH]c1=O (stereo not drawn),> 100,> 100,,> 100,> 100,> 100,,> 100,,> 100,,,,,,,
CC[C@]12C=CCN3CCC4(c5cc(N=Nc6ccccc6)c(OC)cc5N(C)[C@H]4[C@@](O)(C(=O)OC)[C@@H]1OC(C)=O)[C@@H]32 (stereo partly drawn),44.2,35.7,77.1,33,34.4,33.8,,29.4,36.3,34.1,,,,,,,
CCN(CC)CCO/N=C1\CC[C@H]2[C@@H]3CC=C4C[C@@H](O)CC[C@]4(C)[C@H]3CC[C@]12C,25.4,> 100,26.1,31.1,28.5,22.5,,35.9,31.7,96.1,,,,,,,
COc1ccc(C(O)c2ccc3c(c2)OCO3)cc1 (stereo not drawn),,> 100,> 100,> 100,> 100,> 100,> 100,> 100,> 100,> 100,,,,,,,
N#CCCC1C(C#N)C2CC1C1C3C=CC(C3)C21 (stereo not drawn),> 100,,> 100,> 100,> 100,> 100,> 100,,> 100,> 100,,,,,,,
O=C(Nn1c(-c2ccccc2)nc2ccccc2c1=O)c1ccccn1,> 100,> 100,> 100,> 100,,> 100,> 100,> 100,> 100,> 100,,,,,,,
COC(=O)c1ccc(-c2nc(C#N)c(N)o2)cc1,> 100,> 100,> 100,> 100,> 100,> 100,> 100,> 100,,> 100,,,,,,,
COP(=O)(OC)C(N)CCSC (stereo not drawn),> 100,> 100,> 100,> 100,> 100,> 100,> 100,> 100,,> 100,,,,,,,
CC1(O)C=CC2CCC1C2O (stereo not drawn),> 100,> 100,75.7,35.9,> 100,> 100,> 100,> 100,,> 100,,,,,,,
O=C(/C=C/c1ccc(-c2ccccc2[N+](=O)[O-])o1)NCc1ccc(C(=O)NCCc2ccccc2)cc1,> 100,> 100,> 100,> 100,> 100,> 100,,> 100,> 100,> 100,,,,,,,
CN=C(Nn1cnnc1)OC,> 100,,> 100,,> 100,> 100,> 100,> 100,> 100,,,,,,,,
Cc1ccc(C(=O)N(C(C)C)C(C)C)cc1N=NN(C)C,> 100,> 100,> 100,> 31.6,> 100,> 100,,> 100,> 100,> 100,,,,,,,
N#Cc1c(Nc2ccc(F)cc2)[n+]([O-])c2ccc(Cl)cc2[n+]1[O-],23.1,13.4,4.52,4.27,13.3,> 100,> 100,19.1,,> 100,,,,,,,
CCOC(=O)c1ccc2nc(NC(=O)COC(=O)CSc3nc(C)cc(C)n3)sc2c1,> 100,> 100,> 100,> 100,> 100,> 100,15.5,> 100,,> 100,,,,,,,
S=C(N/N=C\C=N/NC(=S)N1CCCCCC1)N1CCCCCC1,> 100,> 100,> 100,> 100,> 100,> 100,,> 100,> 100,> 100,,,,,,,
O=C1c2[nH]cc(CN3CCNCC3)c2C(=O)c2c1c(O)c1ccccc1c2O,3.14,5.15,3.39,,2.7,> 100,,,2.88,12.2,1.64,1.78,1.59,6.5,1.31,2.44,1.18
COc1ccc(/C=C/c2cc(O)cc(OC)c2)cc1,> 100,> 100,> 100,,14.4,> 100,,> 100,,> 100,,,,,,,
CCCCC[C@@H]1OCO[C@@]2(C)/C=C(C)/C=C/C(=O)O[C@H]([C@@H](C)[C@@H](O)[C@H](C)[C@@]3(O)C[C@@H](O[C@H]4C[C@@H](O)[C@H](O)[C@@H](C)O4)[C@H](C)[C@@H](C)O3)[C@@H](OC)/C=C/C=C(\C)C[C@@H]1[C@@H]2O (stereo in doubt),< 0.005,3.49,0.666,,7.17,0.0544,0.455,5.36,0.745,8.83,,,,,,,
CC1(C)O[C@@H](CO)[C@H]([C@@]23OC[C@H]4OC(C)(C)OC4[C@@H]2OC(C)(C)O3)O1 (stereo partly drawn),> 100,> 100,> 100,> 100,> 100,> 100,,> 100,> 100,,,,,,,,
Cc1cc(C)c(S(=O)(=O)N(CCCCN)OCCCN)c(C)c1,39.9,34.4,22.7,31.9,,27.8,38.3,28.8,5.59,32,,,,,,,
Cc1cc(Cc2c(F)c(F)c(Cc3cc(C)no3)c(F)c2F)on1,> 100,> 100,> 100,> 100,> 100,> 100,> 100,> 100,,> 100,,,,,,,
CC1(C)COC(c2cccc(C3=NC(C)(C)CO3)c2Br)=N1,> 100,,> 100,> 100,> 100,> 100,,> 100,> 100,> 100,,,,,,,
